According to patent US12728126B2, “Compounds for inhibiting LY6K and methods of using same” (The Henry M. Jackson Foundation for the Advancement of …, priority 2020, dated 2026):

How the values were obtained:
[1] = system: Hs-578-T cells, BT-549 cells, and OVCAR-8 cells; assay: In vitro cell growth inhibition in other cancer cell types (FIG. 2); format: cell-based
Method: (§1) For cell death assay, cells were plated in a black walled 96-well plate and treated with the indicated concentration of drugs for 24 h. Cell-Titer-Blue reagent was added, and the Cytation 5 microplate reader (BioTek, Winooski, VT, USA) was used to measure fluorescence intensity (excitation 560(10) nm, emission 590(20) nm) according to manufacturer's instructions.
Cell culture and viability assay are as described herein. […] The inhibitory effect of a crystalline form of Compound I on cell growth in vitro is further illustrated in other cancer cells types, including Hs-578-T cells, BT-549 cells, and OVCAR-8 cells (FIG. 2).

[2] = system: 4T1 mouse mammary tumor cells; assay: 4T1 syngeneic mammary tumor model, tumor growth in vivo; set-up: species or system Balb/c mice; settings: 4T1 model
Method: A syngeneic mammary tumor model is used to show the effect of Ly6K small molecule inhibitors on tumor growth in vivo. 4T1 mouse model is an orthotopic allograft model (also called the spontaneous tumor metastasis model). In the 4T1 mouse model, 4T1 mouse mammary tumor cells were injected into the second mammary gland of syngenetic Balb/c mice, and the spontaneous metastasis to the lung were analyzed with a colonogenic assay. 4T1 mice bearing 50-70 mm^3 tumors were treated with NSC243928 or NSC11150 every second day at a dosage of 5 mg/kg in saline. Each group had 10 mice. Tumor measurements were performed using a Vernier caliper. The tumor volumes were calculated using equation ½*length*(width*width).

IFNγ/Stat1 signaling = assay: Western blot of IFNγ induced phosphorylation of Stat1; format: cell-based; settings: serum starved, IFN γ (100 ng/mL), 2 μM, 30 minutes
Method: (§2) Cells were serum starved overnight and then treated with TGF 13 (10 ng/mL) or IFN γ (100 ng/mL) in the presence of 2 μM NSC243928 or NSC11150 for 30 minutes followed by protein analysis using western blot. […] NSC243928 inhibited the TGFβ1 induced phosphorylation of Smad2/3; NSC11150 had no effect on TGFβ1/Smad2/3 signaling. NSC11150 inhibited IFNγ induced phosphorylation of Stat1; NSC243928 had no effect on IFNγ/Stat1 signaling.

MDA-MB-231 cells = assay: Cell-Titer-Blue assay, control vs LY6K knockdown MDA-MB-231 cells; format: cell-based
Method: as §1
To confirm the effect of NSC243928 in LY6K-expressing cells, it was observed the parental control and sh2 LY6K knockdown in MDA-MB-231 cells, a triple negative breast cancer cell line. These cells were generated as previously described. To test the effect of NSC243928 on cell growth, the cells were seeded into 96-well plates and treated with 2 μM of the compound for 24 h. A CTB assay was then performed according to manufacturer's instructions to determine the cell growth.
as §2

PD-L1 [3] = assay: PD-L1 protein expression in control cells; format: cell-based; settings: 2 μM
PD-L1 [4] = assay: PD-L1 measured in live cells after IFN γ treatment; format: cell-based; settings: serum starved, 100 ng/ml IFN γ, 2 μM drug
Method: Cells were serum starved and treated with 100 ng/ml IFN γ with 2 μM drugs. PD-L1 was measured in live cells (using a zombie live-dead stain). The graph was plotted from three experiments. A 7.9-fold decrease in the number of cells with high PD-L1 expression was observed.

TGFβ1/Smad2/3 signaling = assay: Western blot of TGFβ1 induced phosphorylation of Smad2/3; format: cell-based; settings: serum starved, TGFβ1 (10 ng/mL), 2 μM, 30 minutes
Method: as §2

Row | Structure (SMILES) | inhibitory effect on cell growth at different concentrations (comparison) ([1]; crystalline form compared, different concentrations) | IC50 ([1]; range over the cell types of FIG. 2) | day following treatment at which inhibition on tumor growth is statistically significant ([2]; 5 mg/kg every second day, P<0.005) | inhibitory effect on tumor growth in vivo ([2]; 5 mg/kg in saline every second day) | IFNγ induced phosphorylation of Stat1 (IFNγ/Stat1 signaling) | cell death / cell growth in control MDA-MB-231 cells (MDA-MB-231 cells; 2 μM, 24 h, control cells) | cell death in Ly6K knockdown cells (MDA-MB-231 cells; 100 μM, Ly6K knockdown cells (data not shown)) | cell death in control cells (MDA-MB-231 cells; 100 μM, control cells (data not shown)) | PD-L1 protein expression (PD-L1 [3]) | inhibitory effect on cells with high expression of PD-L1 (PD-L1 [4]) | decrease in the number of cells with high PD-L1 expression (PD-L1 [4]; live cells, three experiments) | TGFβ1 induced phosphorylation of Smad2/3 (TGFβ1/Smad2/3 signaling)
1 | CCS(=O)(=O)Nc1ccc(Nc2c3ccccc3nc3ccccc23)c(OC)c1 [crystalline form of Compound I, N-(4-(acridin-9-ylamino)-3-methoxyphenyl)ethanesulfonamide] | same or better inhibitory effect | 4.17 to 7.65 µM | – | – | – | – | – | – | – | – | – | –
2 | Oc1ccc(Cc2ccc(Cl)cc2)c(O)c1 [Compound II, 4-(4-chlorobenzyl)benzene-1,3-diol] | – | – | 11 days | significant inhibitory effects | inhibited | did not show significant effect on cell death | induced cell death | induced cell death | inhibition of PD-L1 expression | showed inhibitory effect | 7.9 fold | had no effect
